# According to patent US8329710B2, “Metformin folate and preparation of the same” (Sino-Us Pficker Pharmaceuticals Co., priority 2006, dated 2012):
# Structures can show the parent of a compound that is named as a salt.
# Tests used:
# [1] = after long-term use, recent clinical application; cited from earlier work
# normal healthy mice [2] = assay: Animal test: blood glucose level in normal healthy mice (control groups), 10 days; type: in vivo; settings: for blood glucose level, After use: normal healthy mice, day 10, folacin-metformin 350 mg/kg body weight, metformin hydrochloride 100 mg/kg body weight, mean of 6 mice
# Experimental: (§1) The female mice were induced to diabetic mice by streptozotocin (body weight […]), 6 animals in one group. The data in the table below represented the average of the values of six mice. Normal healthy mice were used as control group 1, control group 2, and control group 3. Control group 1 was administered folacin-metformin (350 mg/kg body weight), control group 2 was administered metformin hydrochloride (100 mg/kg body weight), and control group 3 was administered normal saline. Diabetic mice were divided into three groups, each group was fed folacin-metformin (350 mg/kg body weight), metformin hydrochloride (100 mg/kg body weight) and normal saline, separately. The test lasted for 10 days, and the blood glucose levels and the homocysteine concentrations were detected for all the mice by the end of the test.
# (§2) On day 10 of the test, test mice were anaesthetized by i.p. injection of 65 mg/kg body weight of sodium pentobarbital, then collected blood sample from the abdominal aorta. Blood glucose levels were determined by a standard protocol (Methods of Enzymatic Analysis, Vol. 3, 2nd ed. Verlag Chemie International, 1981, p1196-1201), and the homocysteine concentrations in the blood samples were determined using high performance liquid chromatograph according to the literature (Eur. J. Clin. Chem. Clin. Biochem. 1991, 29, 549-554).
# [3] = test system: diabetic mice induced by streptozotocin; assay: Animal test: blood glucose level in streptozotocin-induced diabetic mice, 10 days; type: in vivo; settings: for capacity of lowering blood glucose, folacin-metformin compared with metformin hydrochloride (in words): diabetic mice, 10 days, 350 mg/kg vs 100 mg/kg body weight; for blood glucose level, After use: streptozotocin diabetic mice, day 10, folacin-metformin 350 mg/kg body weight, metformin hydrochloride 100 mg/kg body weight, mean of 6 mice
# Experimental: as §1, §2
# [4] = test system: diabetic mice induced by streptozotocin; assay: Animal test: homocysteine concentration in blood of streptozotocin-induced diabetic mice, 10 days; type: in vivo; settings: metformin hydrochloride 100 mg/kg body weight
# Experimental: as §1, §2
# normal healthy mice [5] = assay: Animal test: homocysteine concentration in blood of normal healthy mice (control groups), 10 days; type: in vivo; settings: metformin hydrochloride 100 mg/kg body weight
# Experimental: as §1, §2
Structure (SMILES),homocystein concentration in the patient (in words) [1],"blood glucose level, After use (normal healthy mice [2])","capacity of lowering blood glucose, folacin-metformin compared with metformin hydrochloride (in words) [3]","blood glucose level, After use [3]","increase of the homocysteine concentration while lowering the blood glucose (in words) ([4]; diabetic mice, 10 days, folacin-metformin 350 mg/kg)","homocystein concentration, After use ([4]; streptozotocin diabetic mice, day 10, folacin-metformin 350 mg/kg body weight, mean of 6 mice)","effect on the blood glucose level (in words) (normal healthy mice [2]; healthy mice, 10 days, 350 mg/kg body weight)","effect on the blood homocysteine concentration (in words) (normal healthy mice [5]; healthy mice, 10 days, folacin-metformin 350 mg/kg)","homocystein concentration, After use (normal healthy mice [5]; normal healthy mice, day 10, folacin-metformin 350 mg/kg body weight, mean of 6 mice)"
"CN(C)C(=N)N=C(N)N [metformin hydrochloride, reference compound]",substantially increased,7.4 ± 1.7 mmol/L,no difference,7.6 ± 1.4 mmol/L,–,–,–,–,–
CN(C)C(=N)N=C(N)N.Nc1nc2ncc(CNc3ccc(C(=O)N[C@@H](CCC(=O)O)C(=O)O)cc3)nc2c(=O)[nH]1 [folacin-metformin],–,7.2 ± 1.2 mmol/L,no difference,7.4 ± 1.7 mmol/L,does not increase,8.9 ± 0.9 µmol/L,no effect,slight lowering effect,9.3 ± 1.1 µmol/L
